Laboratory results reported in patent US20240365781A1, “SYNERGISTICALLY EFFECTIVE HERBICIDE COMPOSITION COMPRISING PELARGONIC ACID AND FLAZASULFURON” (Belchim Crop Protection NV, priority 2017, published 2024).

Assays:
Type in all cases: in vivo
[1] = system: Digitaria sanguinalis and Setaria pumila; assay: post-emergence field trial under rows of vines, 150-200 L water/ha (Examples 6-9); conditions: flazasulfuron 40 g/ha
Excerpt: The expected activity of a given combination of two or three herbicides can be calculated as follows according to a calculation method by Colby (cf. COLBY, S. R.: “Calculating synergistic and antagonistic responses of herbicide combinations”, • Weeds 15, pages 20-22, 1967): • If X=% damage by herbicide (A) at an application rate of m g/ha, • Y=% damage by herbicide (B) at an application rate of n g/ha, • E=the expected damage by herbicides (A) and (B) at application rates of m and n […] and, • then for a combination:
Individual compositions comprising pelargonic acid or flazasulfuron are compared with a herbicide composition according to the invention comprising pelargonic acid and flazasulfuron.
(§1) Herbicidal activity was determined by performing a post-emergence test. […] The corresponding mixture was in the form of a spray solution. Besides, spray solutions of individual compositions comprising pelargonic acid or flazasulfuron were used.
(§2) The spray solution was applied on plants of unwanted vegetation present on fields where perennial crops were grown.
(§3) After 5 to 88 days after application of the spray solution, the degree of damage to the unwanted vegetation is rated in % of plants of unwanted vegetation that were killed. Tests were performed on test fields (field trials).

Capsella bursa-pastoris = assay: post-emergence field trial under rows of apple trees, 150-200 L water/ha (Examples 10-12); conditions: 20 g of active compound/ha
Procedure: as §1, §2, §3

Chenopodium album = assay: as above; conditions: 20 g of active compound/ha
Procedure: as §1, §2, §3

Lolium multiflorum = assay: as above; conditions: 20 g of active compound/ha
Procedure: as §1, §2, §3

Poa annua = assay: as above; conditions: 20 g of active compound/ha
Procedure: as §1, §2, §3

Senecio vulgaris = assay: as above; conditions: 20 g of active compound/ha
Procedure: as §1, §2, §3

Setaria viridis = assay: as above; conditions: 20 g of active compound/ha
Procedure: as §1, §2, §3

Sonchus oleracea = assay: as above; conditions: 20 g of active compound/ha
Procedure: as §1, §2, §3

Stellaria media = assay: as above; conditions: 20 g of active compound/ha
Procedure: as §1, §2, §3

Taraxacum officinalis = assay: as above; conditions: 20 g of active compound/ha
Procedure: as §1, §2, §3

Trifolium repens = assay: as above; conditions: 20 g of active compound/ha
Procedure: as §1, §2, §3

Veronica persicae = assay: as above; conditions: 20 g of active compound/ha
Procedure: as §1, §2, §3

COc1cc(OC)nc(NC(=O)NS(=O)(=O)c2ncccc2C(F)(F)F)n1 [Flazasulfuron, 1-(4,6-dimethoxypyrimidin-2-yl)-3-(3-trifluoromethyl-2-pyridylsulfonyl)urea]
herbicidal effect ([1]; 7 d, pelargonic acid 5440 g/ha): 13%
herbicidal effect ([1]; 7 d, pelargonic acid 6800 g/ha): 13%
herbicidal effect ([1]; 7 d, pelargonic acid 8160 g/ha): 13%
herbicidal effect ([1]; 7 d, pelargonic acid 10880 g/ha): 13%
herbicidal effect ([1]; 14 d, pelargonic acid 5440 g/ha): 91%
herbicidal effect ([1]; 14 d, pelargonic acid 8160 g/ha): 91%
herbicidal effect ([1]; 14 d, pelargonic acid 10880 g/ha): 91%
herbicidal effect ([1]; 28 d, pelargonic acid 5440 g/ha): 90%
herbicidal effect ([1]; 28 d, pelargonic acid 6800 g/ha): 90%
herbicidal effect ([1]; 28 d, pelargonic acid 8160 g/ha): 90%
herbicidal effect ([1]; 28 d, pelargonic acid 10880 g/ha): 90%
herbicidal effect ([1]; 65 d, pelargonic acid 5440 g/ha): 98%
herbicidal effect ([1]; 65 d, pelargonic acid 8160 g/ha): 98%
herbicidal effect ([1]; 65 d, pelargonic acid 10880 g/ha): 98%
herbicidal effect (%) (Capsella bursa-pastoris; Capsella bursa-pastoris/6 d): 16%
herbicidal effect (%) (Capsella bursa-pastoris; Capsella bursa-pastoris/16 d): 45%
herbicidal effect (%) (Capsella bursa-pastoris; Capsella bursa-pastoris/30 d): 55%
herbicidal effect (%) (Capsella bursa-pastoris; Capsella bursa-pastoris/57 d): 58%
herbicidal effect (%) (Chenopodium album; Chenopodium album/6 d): 13%
herbicidal effect (%) (Chenopodium album; Chenopodium album/16 d): 59%
herbicidal effect (%) (Chenopodium album; Chenopodium album/30 d): 63%
herbicidal effect (%) (Chenopodium album; Chenopodium album/57 d): 58%
herbicidal effect (%) (Chenopodium album; Chenopodium album/78 d): 64%
herbicidal effect (%) (Lolium multiflorum; Lolium multiflorum/5 d): 0%
herbicidal effect (%) (Lolium multiflorum; Lolium multiflorum/18 d): 79%
herbicidal effect (%) (Lolium multiflorum; Lolium multiflorum/32 d): 87%
herbicidal effect (%) (Lolium multiflorum; Lolium multiflorum/61 d): 91%
herbicidal effect (%) (Lolium multiflorum; Lolium multiflorum/88 d): 89%
herbicidal effect (%) (Poa annua; Poa annua/6 d): 10%
herbicidal effect (%) (Poa annua; Poa annua/16 d): 53%
herbicidal effect (%) (Poa annua; Poa annua/30 d): 60%
herbicidal effect (%) (Poa annua; Poa annua/57 d): 58%
herbicidal effect (%) (Poa annua; Poa annua/78 d): 83%
herbicidal effect (%) (Senecio vulgaris; Senecio vulgaris/6 d): 4%
herbicidal effect (%) (Senecio vulgaris; Senecio vulgaris/28 d): 13%
herbicidal effect (%) (Senecio vulgaris; Senecio vulgaris/58 d): 18%
herbicidal effect (%) (Setaria viridis; Setaria viridis/6 d): 10%
herbicidal effect (%) (Setaria viridis; Setaria viridis/16 d): 50%
herbicidal effect (%) (Setaria viridis; Setaria viridis/30 d): 55%
herbicidal effect (%) (Setaria viridis; Setaria viridis/57 d): 53%
herbicidal effect (%) (Setaria viridis; Setaria viridis/78 d): 43%
herbicidal effect (%) (Sonchus oleracea; Sonchus oleracea/6 d): 18%
herbicidal effect (%) (Sonchus oleracea; Sonchus oleracea/16 d): 28%
herbicidal effect (%) (Sonchus oleracea; Sonchus oleracea/30 d): 43%
herbicidal effect (%) (Sonchus oleracea; Sonchus oleracea/57 d): 23%
herbicidal effect (%) (Sonchus oleracea; Sonchus oleracea/78 d): 45%
herbicidal effect (%) (Stellaria media; Stellaria media/5 d): 0%
herbicidal effect (%) (Stellaria media; Stellaria media/18 d): 79%
herbicidal effect (%) (Taraxacum officinalis; Taraxacum officinalis/5 d): 0%
herbicidal effect (%) (Taraxacum officinalis; Taraxacum officinalis/18 d): 71%
herbicidal effect (%) (Taraxacum officinalis; Taraxacum officinalis/32 d): 83%
herbicidal effect (%) (Taraxacum officinalis; Taraxacum officinalis/61 d): 72%
herbicidal effect (%) (Taraxacum officinalis; Taraxacum officinalis/88 d): 71%
herbicidal effect (%) (Trifolium repens; Trifolium repens/7 d): 20%
herbicidal effect (%) (Trifolium repens; Trifolium repens/16 d): 40%
herbicidal effect (%) (Trifolium repens; Trifolium repens/26 d): 63%
herbicidal effect (%) (Trifolium repens; Trifolium repens/59 d): 68%
herbicidal effect (%) (Veronica persicae; Veronica persicae/7 d): 20%
herbicidal effect (%) (Veronica persicae; Veronica persicae/16 d): 4%
herbicidal effect (%) (Veronica persicae; Veronica persicae/26 d): 20%
herbicidal effect (%) (Veronica persicae; Veronica persicae/59 d): 0%
